Patent US8404619B2, “Particulate plant treatment composition” (Maruo Calcium Company Limited, priority 2005, dated 2013)

Legend:
Assay type in all cases: in vivo
[1] = system: mandarin orange tree (Satsuma mandarin); experiment: preventing peel puffing and improving fruit quality, leaf spray on mandarin orange tree; conditions: for Fruit skin color: color chart 0 (poorly colored) to 12 (fully colored); for Degree of peel puffing: peel puffing index, 20 fruits, sprayed three times; for Phytotoxicity: scale of 1 to 5; for Sugar content: sugar refractometer; for Acidity: titratable citric acid content
Experimental: (§1) The effects of a quality improver in preventing peel puffing and improving fruit quality were evaluated using a mandarin orange tree (Satsuma mandarin). That is, the quality improver of Example 1 was sprayed on the mandarin orange tree at the polyvalent metal concentrations shown in Table 2 over three times from early September (one-month interval). Each treatment was conducted on each branch by spraying with a backpack sprayer.
The evaluation was carried out on 20 randomly selected fruits. The degree of peel puffing was evaluated by examining cross sections of the fruits based on a 4-point scale (none=0, mild=1, moderate=2, severe=3), and expressed by the following equation: peel puffing index={(1×the number of fruits with mild peel puffing)+(2×the number of fruits with moderate peel puffing)+(3×the number of fruits with severe peel puffing)}×100/(3×the number of fruits examined). The fruit skin color was determined using a color chart based on a scale of 0 (poorly colored) to 12 (fully colored). The sugar content was determined using a sugar refractometer. The acidity was expressed as titratable citric acid content. The dirt on a fruit surface was evaluated by a ratio of the surface area soiled whitish to the total surface area of the fruit on a scale of 1 to 5 (not soiled=1, slightly soiled=2, a little soiled=3, moderately soiled=4, much soiled=5). The phytotoxicity was evaluated on a scale of 1 to 5 (normal=1, slightly damaged=2, a little damaged=3, moderately damaged=4, much damaged=5).
The examinations were carried out in the same manner as in Application Example 1 except that the quality improvers of Examples 2 to 21 and Comparative Examples 1 to 4 were used instead of the quality improver of Example 1.

grape tree (Pione) = experiment: reducing fruit-cracking and improving fruit quality, spray on grape tree
Experimental: as §1, with “reducing fruit-cracking” for “preventing peel puffing”, “grape” for “mandarin orange”, “(Pione).” for “(Satsuma mandarin).”, “8” for “2”, “four” for “three”, “July (two-week” for “September (one-month”
The evaluation was carried out on 20 randomly selected clusters. The number of fruit-cracking was expressed as the number of grains with cracking in a cluster examined. The degree of fruit coloring was expressed using a color chart based on a scale of 0 (poorly colored) to 12 (fully colored). The sugar content was determined using a sugar refractometer. The acidity was expressed as titratable tartaric acid content. The dirt on a fruit surface was evaluated by a ratio of the surface area soiled whitish to the total surface area of the fruit on a scale of 1 to 5 (not soiled=1, slightly soiled=2, a little soiled=3, moderately soiled=4, much soiled=5). The phytotoxicity was evaluated on a scale of 1 to 5 (normal=1, slightly damaged=2, a little damaged=3, moderately damaged=4, much damaged=5).
The examinations were carried out in the same manner as in Application Example 64 except that the quality improvers of Examples 2 to 4, 6 to 7, 12, 14, 17 to 18, and Comparative Examples 1 to 4 were used instead of the quality improver of Example 1.

apple tree (Tsugaru) = experiment: preventing sunburn, spray on apple tree
Experimental: The effects of a quality improver in preventing sunburn were evaluated using an apple tree (Tsugaru).
That is, the quality improver of Example 1 was sprayed on the apple tree at the polyvalent metal concentrations shown in Table 12 over three times from early July (two-week interval). Each treatment was conducted on each branch by spraying with a backpack sprayer.
The evaluation was carried out on 50 randomly selected fruits. The incidence of sunburn was expressed as a ratio of the number of fruits with sunburn to the total number of fruits examined. The level of sunburn was expressed on a 4-point scale (none=0, mild=1, moderate=2, severe=3) based on a ratio of the sunburn area to the total surface area of the fruit. The fruit with a sunburn level of 2 or 3 was considered as a seriously damaged fruit. The dirt on a fruit surface was evaluated by a ratio of the surface area soiled whitish to the total surface area of the fruit on a scale of 1 to 5 (not soiled=1, slightly soiled=2, a little soiled=3, moderately soiled=4, much soiled=5). The phytotoxicity was evaluated on a scale of 1 to 5 (normal=1, slightly damaged=2, a little damaged=3, moderately damaged=4, much damaged=5).
The examinations were carried out in the same manner as in Application Example 84 except that the quality improvers of Examples 2 to 4, 6 to 7, 12, 14, 17 to 18, and Comparative Examples 1 to 4 were used instead of the quality improver of Example 1.

[2] = system: Welsh onion plant (Sakaiyakko); experiment: reducing leaf blight and improving quality, spray on Welsh onion plant; conditions: for Leaf blight: leaf blight index, 50 plants, sprayed three times; for Phytotoxicity: scale of 1 to 5
Experimental: The effects of a quality improver in reducing leaf blight and improving fruit quality were evaluated using a Welsh onion plant (Sakaiyakko).
That is, the quality improver of Example 1 was sprayed on the Welsh onion at the polyvalent metal concentrations shown in Table 7 over three times from early June (one-week interval) using a backpack sprayer.
The evaluation was carried out on 50 randomly selected plants. The leaf blight was determined by evaluating the degree of leaf blight based on a 4-point scale (none=0, mild=1, moderate=2, severe=3), and expressed by the following equation: leaf blight index={(1×the number of plants with mild leaf blight)+(2×the number of plants with moderate leaf blight)+(3×the number of plants with severe leaf blight)}×100/(3× the number of plants examined). In addition, plant length, plant weight, the number of leaves, and yield were evaluated. The dirt on a leaf surface was evaluated by a ratio of the surface area soiled whitish to the total surface area of the leaf on a scale of 1 to 5 (not soiled=1, slightly soiled=2, a little soiled=3, moderately soiled=4, much soiled=5). The phytotoxicity was evaluated on a scale of 1 to 5 (normal=1, slightly damaged=2, a little damaged=3, moderately damaged=4, much damaged=5).
The examinations were carried out in the same manner as in Application Example 43 except that the quality improvers of Examples 2 to 21 and Comparative Examples 1 to 4 were used instead of the quality improver of Example 1.

SMILES	Fruit skin color ([1]; polyvalent metal 0.030 wt. %)	Fruit skin color ([1]; polyvalent metal 0.075 wt. %)	Degree of peel puffing ([1]; polyvalent metal 0.030 wt. %)	Degree of peel puffing ([1]; polyvalent metal 0.075 wt. %)	Phytotoxicity ([1]; polyvalent metal 0.030 wt. %)	Phytotoxicity ([1]; polyvalent metal 0.075 wt. %)	Sugar content ([1]; polyvalent metal 0.030 wt. %)	Sugar content ([1]; polyvalent metal 0.075 wt. %)	Acidity ([1]; polyvalent metal 0.030 wt. %)	Acidity ([1]; polyvalent metal 0.075 wt. %)	Acidity (grape tree (Pione); polyvalent metal 0.030 wt. %)	Degree of fruit coloring (grape tree (Pione); polyvalent metal 0.030 wt. %)	Number of fruit-cracking (grape tree (Pione); polyvalent metal 0.030 wt. %)	Phytotoxicity (grape tree (Pione); polyvalent metal 0.030 wt. %)	Sugar content (grape tree (Pione); polyvalent metal 0.030 wt. %)	Acidity (grape tree (Pione); polyvalent metal 0.075 wt. %)	Degree of fruit coloring (grape tree (Pione); polyvalent metal 0.075 wt. %)	Number of fruit-cracking (grape tree (Pione); polyvalent metal 0.075 wt. %)	Phytotoxicity (grape tree (Pione); polyvalent metal 0.075 wt. %)	Sugar content (grape tree (Pione); polyvalent metal 0.075 wt. %)	other results
O=C[O-].O=C[O-].[Ca+2] [calcium formate]	10.0	10.4	47.5	42.5	3	3	10.5	11.1	0.93	0.95	0.54	9.7	3.9	3	18.9	0.53	9.7	3.6	3	19.3	Incidence of sunburn (apple tree (Tsugaru); polyvalent metal 0.030 wt. %): 10.0%; Phytotoxicity (apple tree (Tsugaru); polyvalent metal 0.030 wt. %): 3; Seriously damaged fruit (apple tree (Tsugaru); polyvalent metal 0.030 wt. %): 6.0%; Incidence of sunburn (apple tree (Tsugaru); polyvalent metal 0.075 wt. %): 10.0%; Phytotoxicity (apple tree (Tsugaru); polyvalent metal 0.075 wt. %): 3; Seriously damaged fruit (apple tree (Tsugaru); polyvalent metal 0.075 wt. %): 6.0%; Leaf blight ([2]; polyvalent metal 0.030 wt. %): 30.0; Leaf blight ([2]; polyvalent metal 0.075 wt. %): 28.0; Number of leaves ([2]; polyvalent metal 0.030 wt. %): 34.2; Plant length ([2]; polyvalent metal 0.030 wt. %): 60.8; Plant weight ([2]; polyvalent metal 0.030 wt. %): 185; Number of leaves ([2]; polyvalent metal 0.075 wt. %): 35.6; Plant length ([2]; polyvalent metal 0.075 wt. %): 62.8; Plant weight ([2]; polyvalent metal 0.075 wt. %): 191; Phytotoxicity ([2]; polyvalent metal 0.030 wt. %): 3; Phytotoxicity ([2]; polyvalent metal 0.075 wt. %): 3
[Ca+2].[Cl-].[Cl-] [calcium chloride]	9.5	9.9	47.0	42.0	4	4	10.0	10.1	1.00	0.99	0.63	9.2	4.4	4	18.4	0.66	9.0	4.5	4	18.6	Incidence of sunburn (apple tree (Tsugaru); polyvalent metal 0.030 wt. %): 10.0%; Phytotoxicity (apple tree (Tsugaru); polyvalent metal 0.030 wt. %): 4; Seriously damaged fruit (apple tree (Tsugaru); polyvalent metal 0.030 wt. %): 8.0%; Incidence of sunburn (apple tree (Tsugaru); polyvalent metal 0.075 wt. %): 12.0%; Phytotoxicity (apple tree (Tsugaru); polyvalent metal 0.075 wt. %): 4; Seriously damaged fruit (apple tree (Tsugaru); polyvalent metal 0.075 wt. %): 8.0%; Leaf blight ([2]; polyvalent metal 0.030 wt. %): 42.0; Leaf blight ([2]; polyvalent metal 0.075 wt. %): 40.0; Number of leaves ([2]; polyvalent metal 0.030 wt. %): 30.3; Plant length ([2]; polyvalent metal 0.030 wt. %): 59.2; Plant weight ([2]; polyvalent metal 0.030 wt. %): 185; Number of leaves ([2]; polyvalent metal 0.075 wt. %): 31.3; Plant length ([2]; polyvalent metal 0.075 wt. %): 60.9; Plant weight ([2]; polyvalent metal 0.075 wt. %): 189; Phytotoxicity ([2]; polyvalent metal 0.030 wt. %): 4; Phytotoxicity ([2]; polyvalent metal 0.075 wt. %): 4
